Test results from EP1674457B1, “Derivatives of squaric acid with anti-proliferative activity” (GPC Biotech AG, priority 2004, dated 2006).

Columns and labels:
HCT-116 [1] = test: IC50 determination by SRB assay (Example 62); assay type: cell-based; conditions: Homo sapiens, HCT-116; HCY-116
Method: (§1) 3,000-15,000 cells/well were exposed to the test compounds at a concentration of 1 µM for 48 hours, and cytotoxicty was measured using the SRB assay according to Shekan et al (J Natl Cancer Inst (1990) 82, 1107-112). Briefly, cells were plated in 96 well dishes 24 hours prior to compound addition. The assay was terminated with the addition of cold TCA to a final concentration of 10% and the plates were incubated for one hour at 4°C. The plates were then washed 5 times with water and 100µl of a Sulforhodamine B solution (4%) was added to each well. The plate was then incubated for 10 minutes at room temperature before removal of unbound dye by washing with 1% acetic acid. The bound dye was solubilized with 10 mM Trizma base and the absorbance read at OD570. Inhibitory activity of the compounds was calculated as % inhibition compared to cells treated with the solvent (DMSO). Table 2 represents the growth inhibitory activity of certain compunds of the invention across a number of tumor cell lines.
(§2) The assay was performed similar to example 61. However, test compounds were added at various concentrations, such as from 0.001 to about 0.1 µM, from 0.1 to about 10 µM, or from 1 to about 10 µM, as the need may be, in order to estimate the IC50 values. IC50 values were determined by plotting the percentage inhibitory activity for each concentration, fitting a curve using appropriate software and estimating the concentration at which 50% inhibition of growth would occur.

A-549 [2] = test: IC50 determination by SRB assay (Example 62); assay type: cell-based; conditions: Homo sapiens, A549
Method: as §1, §2

MCF7 [3] = test: IC50 determination by SRB assay (Example 62); assay type: cell-based; conditions: Homo sapiens
Method: as §1, §2

A2780 [4] = test: IC50 determination by SRB assay (Example 62); assay type: cell-based; conditions: Homo sapiens
Method: as §1, §2

A2780 [5] = test: SRB assay, inhibition of tumor cell growth at 1 µM (Example 61); assay type: cell-based, Human; conditions: Homo sapiens, 48 hours
Method: as §1

HCT-116 [6] = test: as above; assay type: cell-based; conditions: Homo sapiens, 48 hours
Method: as §1

A-549 [7] = test: as above; assay type: cell-based; conditions: Homo sapiens, A549, 48 hours
Method: as §1

SW-620 [8] = test: as above; assay type: cell-based; conditions: Homo sapiens, 48 hours
Method: as §1

PC-3 [9] = test: as above; assay type: cell-based; conditions: Homo sapiens, 48 hours
Method: as §1

MCF7 [10] = test: as above; assay type: cell-based; conditions: Homo sapiens, 48 hours
Method: as §1

SW-620 [11] = test: IC50 determination by SRB assay (Example 62); assay type: cell-based; conditions: Homo sapiens
Method: as §1, §2

PC-3 [12] = test: IC50 determination by SRB assay (Example 62); assay type: cell-based; conditions: Homo sapiens
Method: as §1, §2

Row | IC50 (HCT-116 [1]) [nM] | IC50 (A-549 [2]) [nM] | IC50 (MCF7 [3]) [µM] | IC50 (A2780 [4]) [nM] | IC50 (SW-620 [11]) [nM] | IC50 (PC-3 [12]) [µM] | SMILES | inhibition at 1 µM (A2780 [5]) [%] | inhibition at 1 µM (HCT-116 [6]) [%] | inhibition at 1 µM (A-549 [7]) [%] | inhibition at 1 µM (SW-620 [8]) [%] | inhibition at 1 µM (PC-3 [9]) [%] | inhibition at 1 µM (MCF7 [10]) [%]
1 | < 20 | < 2000 | < 10 | < 20 | – | – | O=c1c(NCCCCCCOc2ccccc2)c(Nc2ccncc2)c1=O [SQ-12, 3-(6-Phenoxyhexylamino)-4-(pyridin-4y1-amino)-3-cyclobutene-1,2-dione] | > 80 | > 80 | > 50 | > 20 | > 50 | > 20
2 | < 10000 | – | – | < 10000 | – | > 10 | O=c1c(NCc2cccc(COc3ccc(Cl)cc3)c2)c(Nc2cccnc2)c1=O [SQ-35, 3-[3-(4-Chlorophenoxymethyl)-benzylamino]-4-(pyridin-3-yl-amino)-cyclobut-3-ene-1,2-dione] | – | – | – | – | – | –
3 | < 20 | – | – | < 20 | – | < 0.1 | O=c1c(NCCCCCCOc2ccc(CN3CCOCC3)cc2)c(Nc2cccnc2)c1=O [SQ-39, 3-(6-[4-(Morpholinomethyl)-phenoxy]-hexylamino)-4-(pyridin-3-yl-amino)-3-cyclobutene-1,2-dione] | > 80 | > 80 | > 50 | > 20 | > 20 | > 5
4 | < 10000 | – | – | < 10000 | – | < 10 | O=c1c(NCCC2CCN(Cc3ccccc3)CC2)c(Nc2ccncc2)c1=O [SQ-38, 3-[2-(1-Benzylpiperidin-4-yl)-ethylamino]-4-(pyridin4-yl-amino)-cyclobut-3-ene-1,2-dione] | – | – | – | – | – | –

The remaining lines, values behind:

Row | SMILES | IC50 (HCT-116 [1]) [nM] | IC50 (A-549 [2]) [nM] | IC50 (MCF7 [3]) [µM] | IC50 (A2780 [4]) [nM] | IC50 (SW-620 [11]) [nM] | IC50 (PC-3 [12]) [µM] | inhibition at 1 µM (A2780 [5]) [%] | inhibition at 1 µM (HCT-116 [6]) [%] | inhibition at 1 µM (A-549 [7]) [%] | inhibition at 1 µM (SW-620 [8]) [%] | inhibition at 1 µM (PC-3 [9]) [%] | inhibition at 1 µM (MCF7 [10]) [%]
5 | O=c1c(NCCCCCCOc2ccccc2)c(Nc2cccnc2)c1=O [SQ-3] | < 100 | < 500 | < 10 | – | < 500 | – | > 80 | > 80 | > 50 | > 50 | > 50 | > 5
6 | O=c1c(NCCC2CCN(Cc3ccccc3)CC2)c(Nc2cccnc2)c1=O [SQ-37, 3-[2-(1-Benzylpiperidin-4-yl)ethylamino]-4-(pyridin-3-yl-amino)-cyclobut-3-ene-1,2-dione] | < 2000 | – | – | < 2000 | – | < 10 | – | – | – | – | – | –
7 | O=c1c(NCCCCCCCc2ccccc2)c(Nc2ccncc2)c1=O [SQ-22, 3-(7-Phenylheptylamino)-4-(pyridin-4-yl-amino)-cyclobut-3-ene-1,2-dione] | < 20 | – | – | < 20 | – | < 0.02 | > 80 | > 80 | > 50 | > 50 | > 50 | > 20
8 | O=c1c(NCCCCCCOc2cccnc2)c(Nc2ccncc2)c1=O [SQ-16, 3-(Pyridin-4-ylamino)-4-[6-(pyridin-3-yloxy)-hexylamino]-cyclobut-3-ene-1,2-dione] | < 500 | – | – | < 100 | – | < 0.5 | > 80 | > 80 | > 20 | > 20 | > 20 | > 5
9 | Cc1ccc(OCCCCCCNc2c(Nc3cccnc3)c(=O)c2=O)cc1 [SQ-4] | < 100 | < 500 | < 10 | – | < 2000 | – | > 80 | > 80 | > 50 | > 50 | > 50 | –
10 | O=c1c(NCCCCCCSc2ccc(Cl)cc2)c(Nc2ccncc2)c1=O [SQ-27, 3-[6-(4-Chlorophenylsulfanyl)-hexylamino]-4-(pyridin-4-yl-amino)-cyclobut-3-ene-1,2-dione] | < 100 | < 2000 | – | – | < 500 | – | > 80 | > 80 | > 50 | > 20 | > 50 | > 20
